# Source: patent US20100267561A1, “HERBICIDAL PYRIDAZINONE DERIVATIVES” (priority 2007, published 2010)
# Experiments:
# Format in all cases: in vivo
# [1] = system: Italian ryegrass (Lolium multiflorum); test: Test B pre-/postemergence plant response; conditions: for Ryegrass, Italian plant response rating: 8 g ai/ha
# Excerpt: (§1) Seeds of plant species selected from blackgrass (Alopecurus myosuroides), downy bromegrass (Bromus tectorum), green foxtail (Setaria viridis), Italian ryegrass (Lolium multiflorum), wheat (Triticum aestivum), wild oat (Avena fatua), catchweed bedstraw (Galium aparine), bermudagrass (Cynodon dactylon), surinam grass (Brachiaria decumbens), cocklebur (Xanthium strumarium), corn (Zea mays), large crabgrass (Digitaria sanguinalis), woolly cupgrass (Eriochloa villosa), giant foxtail (Setaria faberii), goosegrass (Eleusine indica), johnsongrass (Sorghum halepense), kochia (Kochia scoparia), lambsquarters (Chenopodium album), morningglory (Ipomoea coccinea), eastern black (E.B.) nightshade (Solanum ptycanthum), yellow nutsedge (Cyperus esculentus), pigweed (Amaranthus retroflexus), common ragweed (Ambrosia elation), Russian thistle (Salsola iberica), soybean (Glycine max), common (oilseed) sunflower (Helianthus annuus), and velvetleaf (Abutilon theophrasti) were planted and treated preemergence with test chemicals formulated in a non-phytotoxic solvent mixture which included a surfactant.
# (§2) At the same time, plants selected from these crop and weed species and also winter barley (Hordeum vulgare), canarygrass (Phalaris minor), chickweed (Stellaria media) and windgrass (Apera spica-venti) were treated with postemergence applications of some of the test chemicals formulated in the same manner. Plants ranged in height from 2 to 18 cm (1- to 4-leaf stage) for postemergence treatments.
# (§3) Plant species in the flooded paddy test consisted of rice (Oryza sativa), umbrella sedge (Cyperus difformis), ducksalad (Heteranthera limosa) and barnyardgrass (Echinochloa crus-galli) grown to the 2-leaf stage for testing. At time of treatment, test pots were flooded to 3 cm above the soil surface, treated by application of test compounds directly to the paddy water, and then maintained at that water depth for the duration of the test. Treated plants and controls were maintained in a greenhouse for 13 to 15 days, after which time all species were compared to controls and visually evaluated. Plant response ratings, summarized in Table B, are based on a scale of 0 to 100 where 0 is no effect and 100 is complete control. A dash (-) response means no test result.
# [2] = system: Russian thistle (Salsola iberica); test: Test B pre-/postemergence plant response; conditions: Preemergence
# Excerpt: as §1, §2, §3
# [3] = system: bermudagrass (Cynodon dactylon); test: Test B pre-/postemergence plant response; conditions: for Bermudagrass plant response rating: 8 g ai/ha
# Excerpt: as §1, §2, §3
# [4] = system: cocklebur (Xanthium strumarium); test: Test B pre-/postemergence plant response; conditions: for Cocklebur plant response rating: 8 g ai/ha
# Excerpt: as §1, §2, §3
# [5] = system: common ragweed (Ambrosia elation); test: Test B pre-/postemergence plant response; conditions: for Ragweed plant response rating: 8 g ai/ha
# Excerpt: as §1, §2, §3
# [6] = system: goosegrass (Eleusine indica); test: Test B pre-/postemergence plant response; conditions: for Goosegrass plant response rating: 8 g ai/ha
# Excerpt: as §1, §2, §3
# [7] = system: lambsquarters (Chenopodium album); test: Test B pre-/postemergence plant response; conditions: for Lambsquarters plant response rating: 8 g ai/ha
# Excerpt: as §1, §2, §3
# [8] = system: large crabgrass (Digitaria sanguinalis); test: Test B pre-/postemergence plant response; conditions: for Crabgrass, Large plant response rating: 8 g ai/ha
# Excerpt: as §1, §2, §3
# soybean (Glycine max) = test: Test B pre-/postemergence plant response; conditions: for Soybean plant response rating: 8 g ai/ha
# Excerpt: as §1, §2, §3
# [9] = system: velvetleaf (Abutilon theophrasti); test: Test B pre-/postemergence plant response; conditions: for Velvetleaf plant response rating: 8 g ai/ha
# Excerpt: as §1, §2, §3
# [10] = system: barnyardgrass (Echinochloa crus-galli); test: Test B flooded paddy test plant response
# In short: (§4)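 Paddy-water application to 2-leaf plants in pots held under 3 cm of flooding; response is a 0–100 visual control rating against controls after 13 to 15 days, and a dash marks a missing result.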
# [11] = system: ducksalad (Heteranthera limosa); test: Test B flooded paddy test plant response
# In short: as §4
# rice (Oryza sativa) = test: Test B flooded paddy test plant response
# In short: as §4
# [12] = system: umbrella sedge (Cyperus difformis); test: Test B flooded paddy test plant response
# In short: as §4
# [13] = Postemergence, 16 g ai/ha, scale 0 to 100
# [14] = Postemergence, 31 g ai/ha, scale 0 to 100, 0 no effect, 100 complete control
# [15] = Postemergence, 62 g ai/ha, scale 0 to 100, 0 no effect, 100 complete control
# [16] = Preemergence, 16 g ai/ha, scale 0 to 100 (0 no effect, 100 complete control)
# [17] = Preemergence, 31 g ai/ha, 0 to 100 scale, 0 no effect, 100 complete control
# [18] = Preemergence, 62 g ai/ha, scale 0 to 100
# [19] = Flood (flooded paddy test), 62 g ai/ha, scale 0 to 100, 0 no effect, 100 complete control
# [20] = Flood (flooded paddy test), 125 g ai/ha, scale 0 to 100, 0 no effect, 100 complete control
# [21] = Flood (flooded paddy test), 250 g ai/ha, scale 0 to 100, 0 no effect, 100 complete control
# [22] = Flood, 31 g ai/ha, scale 0 to 100
smiles,measurement,setting,value
Cc1cc(-c2ccc(Cl)cc2)nn1-c1c(OC(=O)c2ccccc2Cl)cnn(C)c1=O [Compound 38],"Ryegrass, Italian plant response rating","[1]; postemergence, 0-100 scale",10
same,"Plant response rating, Ryegrass, Italian",[1]; [13],85
same,"Plant response rating, Ryegrass, Italian",[1]; [14],85
same,"Plant response rating, Ryegrass, Italian",[1]; [15],98
same,"Plant response rating, Ryegrass, Italian",[1]; [16],80
same,"Plant response rating, Ryegrass, Italian",[1]; [17],95
same,"Plant response rating, Ryegrass, Italian",[1]; [18],100
same,"Ryegrass, Italian plant response rating","[1]; Preemergence, scale 0 to 100",30
same,"Plant response rating, Russian Thistle","[2]; 16 g ai/ha, scale 0 to 100 (0 no effect, 100 complete control)",0
same,"Plant response rating, Russian Thistle","[2]; 31 g ai/ha, 0 to 100 scale, 0 no effect, 100 complete control",0
same,"Plant response rating, Russian Thistle","[2]; 62 g ai/ha, scale 0 to 100",0
same,Russian Thistle plant response rating,"[2]; 8 g ai/ha, scale 0 to 100",0
same,Bermudagrass plant response rating,"[3]; postemergence, 0-100 scale",40
same,"Plant response rating, Bermudagrass",[3]; [13],85
same,"Plant response rating, Bermudagrass",[3]; [14],100
same,"Plant response rating, Bermudagrass",[3]; [15],100
same,Bermudagrass plant response rating,"[3]; Preemergence, scale 0 to 100 (0 no effect, 100 complete control)",60
same,"Plant response rating, Bermudagrass",[3]; [16],100
same,"Plant response rating, Bermudagrass",[3]; [17],100
same,"Plant response rating, Bermudagrass",[3]; [18],100
same,Cocklebur plant response rating,"[4]; postemergence, 0-100 scale",0
same,"Plant response rating, Cocklebur",[4]; [13],0
same,"Plant response rating, Cocklebur",[4]; [14],0
same,"Plant response rating, Cocklebur",[4]; [15],0
same,"Plant response rating, Cocklebur",[4]; [16],0
same,"Plant response rating, Cocklebur",[4]; [17],0
same,"Plant response rating, Cocklebur",[4]; [18],0
same,Cocklebur plant response rating,"[4]; Preemergence, scale 0 to 100",0
same,Ragweed plant response rating,"[5]; postemergence, 0-100 scale",0
same,"Plant response rating, Ragweed",[5]; [13],0
same,"Plant response rating, Ragweed",[5]; [14],0
same,"Plant response rating, Ragweed",[5]; [15],0
same,"Plant response rating, Ragweed",[5]; [16],0
same,"Plant response rating, Ragweed",[5]; [17],0
same,"Plant response rating, Ragweed",[5]; [18],0
same,Ragweed plant response rating,"[5]; Preemergence, scale 0 to 100",0
same,Goosegrass plant response rating,"[6]; postemergence, 0-100 scale",100
same,"Plant response rating, Goosegrass",[6]; [13],100
same,"Plant response rating, Goosegrass",[6]; [14],100
same,"Plant response rating, Goosegrass",[6]; [15],100
same,"Plant response rating, Goosegrass",[6]; [16],85
same,"Plant response rating, Goosegrass",[6]; [17],95
same,"Plant response rating, Goosegrass",[6]; [18],95
same,Goosegrass plant response rating,"[6]; Preemergence, scale 0 to 100",45
same,Lambsquarters plant response rating,"[7]; postemergence, 0-100 scale",0
same,"Plant response rating, Lambsquarters",[7]; [13],0
same,"Plant response rating, Lambsquarters",[7]; [14],0
same,"Plant response rating, Lambsquarters",[7]; [15],0
same,"Plant response rating, Lambsquarters",[7]; [16],0
same,"Plant response rating, Lambsquarters",[7]; [17],0
same,"Plant response rating, Lambsquarters",[7]; [18],0
same,Lambsquarters plant response rating,"[7]; Preemergence, scale 0 to 100",0
same,"Crabgrass, Large plant response rating","[8]; postemergence, 0-100 scale",70
same,"Plant response rating, Crabgrass, Large",[8]; [13],70
same,"Plant response rating, Crabgrass, Large",[8]; [14],90
same,"Plant response rating, Crabgrass, Large",[8]; [15],100
same,"Plant response rating, Crabgrass, Large",[8]; [16],98
same,"Plant response rating, Crabgrass, Large",[8]; [17],100
same,"Plant response rating, Crabgrass, Large",[8]; [18],100
same,"Crabgrass, Large plant response rating","[8]; Preemergence, scale 0 to 100",45
same,Soybean plant response rating,"soybean (Glycine max); postemergence, 0-100 scale",0
same,"Plant response rating, Soybean",soybean (Glycine max); [13],0
same,"Plant response rating, Soybean",soybean (Glycine max); [15],0
same,"Plant response rating, Soybean",soybean (Glycine max); [16],0
same,"Plant response rating, Soybean",soybean (Glycine max); [17],0
same,"Plant response rating, Soybean",soybean (Glycine max); [18],0
same,Soybean plant response rating,"soybean (Glycine max); Preemergence, scale 0 to 100",0
same,Velvetleaf plant response rating,"[9]; postemergence, 0-100 scale",0
same,"Plant response rating, Velvetleaf",[9]; [13],0
same,"Plant response rating, Velvetleaf",[9]; [15],0
same,"Plant response rating, Velvetleaf",[9]; [16],0
same,"Plant response rating, Velvetleaf",[9]; [17],0
same,"Plant response rating, Velvetleaf",[9]; [18],0
same,Velvetleaf plant response rating,"[9]; Preemergence, scale 0 to 100",0
same,"Plant response rating, Barnyardgrass",[10]; [19],95
same,"Plant response rating, Barnyardgrass",[10]; [20],95
same,"Plant response rating, Barnyardgrass",[10]; [21],95
same,"Plant response rating, Barnyardgrass",[10]; [22],20
same,"Plant response rating, Ducksalad",[11]; [20],30
same,"Plant response rating, Ducksalad",[11]; [21],40
same,"Plant response rating, Ducksalad",[11]; [22],40
same,"Plant response rating, Rice",rice (Oryza sativa); [19],75
same,"Plant response rating, Rice",rice (Oryza sativa); [20],75
same,"Plant response rating, Rice",rice (Oryza sativa); [21],85
same,"Plant response rating, Rice",rice (Oryza sativa); [22],0
same,"Plant response rating, Sedge, Umbrella",[12]; [20],70
same,"Plant response rating, Sedge, Umbrella",[12]; [21],70
same,"Plant response rating, Sedge, Umbrella",[12]; [22],20
